US9399145B2, “Nanoscale neuromodulating platform for retina neuron activation apparatus and method” (The Board of Trustees of the University of Illinois, priority 2005, dated 2016)

How the values were obtained:
[1] = tested on: GABAARs of cerebellar PNs; assay: Test for direct agonist activity on Purkinje neurons (recirculating MPC088, no exogenous GABA); assay type: cell-based, mouse; conditions: 30 μM gabazine added to 30 μM MPC088
Description: To test for direct agonist activity of MPC088 on PNs, cerebellar slices were perfused with recirculating 30 μM MPC088 (the maximal MPC088 concentration that could be reliably maintained solubilized in bicarbonate-buffered solution). MPC088 was converted to cis-dominant form by a 2-min exposure to UV light (LED, 365 nm/160 mW, Mouser, Inc., Mansfield, Tex.; LED driver, 700 mA BuckPuck DC Driver, Quadica Developments, Inc., Brantford, Ontario, Canada), before its dilution into the recirculating external solution. The same LED was then used to continuously UV-illuminate the recirculating solution for the duration of the experiment. Whole-cell voltage clamp recordings were obtained from PNs and determined the change in membrane current produced by alternating blue and UV illumination of the slice, as in the FIG. 40 experiments. […] The temporal sequence of illumination differed among the experiments (e.g., only the cell in a received multiple blue/UV exposures), but the data plotted are the amplitudes from the blue to UV transition (in the case of the cell in a, this is the blue/UV transition from the first of the three exposures). Yellow-filled data points indicate results from the experiment in a. Each data point is the average obtained from 4-10 consecutive recordings. […] Error bars represent the SEM (FIG. 42b).

[2] = target: T1, α1β2γ2 GABAARs (rat α1, rat β2 and human γ2S) (UniProt P18507+P62813+P63138); assay: Two-electrode voltage clamp of α1β2γ2 GABAAR-expressing Xenopus oocytes; assay type: cell-based
T1 construct: expressed in transfected cells; host or cells: Xenopus laevis oocytes
From the text: Purple and gray bars indicate periods of presentation of UV light (purple) and high-intensity visible light (High-Vis) (gray), respectively. […] These amplitude determination conditions are denoted by numbers beneath the waveform in FIG. 35d.
In each of the MPC088 experiments, the cis-dominant form was generated by UV light during static bathing. […] Numbers beneath the waveform in FIG. 2(c) denote amplitude determination conditions for that experiment.
Oocytes expressing α1β2γ2 receptors (rat α1, rat β2 and human γ2S) were prepared and studied by two-electrode voltage-clamp recording^58 (holding potential: −70 mV; amplifier: GeneClamp500B; Axon Instruments, Foster City, Calif.). Unless otherwise indicated, oocytes were superfused with Ringer solution (physiological saline) at a rate of ˜1 mL/min. The experiments of FIGS. 35d-e, 36c-e and 47 involved periods of static bathing, i.e., halted superfusion. The γ2(A79C) subunit was prepared by site-directed mutagenesis. Oocyte electrophysiological experiments were carried out in room light. A UV light-emitting diode (peak wavelength: 365 nm; Hamamatsu Photonics, Japan) and a microscope illuminator (white light; Schott Fostec, Auburn, N.Y.) provided UV and visible stimulating light. As measured at the position of the oocyte, the intensity of the UV light at 365 nm was 220 μW/mm^2. At 440 nm, the nominal strength of the visible (white) light (referred to as high-intensity visible light) was 28 μW/mm^2, and that of the ambient room illumination was 0.045 μW/mm^2. In all experiments, low-intensity visible light from the microscope illuminator (3 μW/mm^2 at 440 nm) was present at all times except those involving high-intensity visible illumination. Electrophysiological data were obtained using Clampex 8.2 (Axon Instruments), analyzed using Clampfit 10.0 (Axon Instruments) and OriginPro7.5 (OriginLab, Northampton, Mass.). All statistical analysis employed a two-sample t-test.

Hydrophobicity (log P) = assay type: physicochemical
α4β3δ GABAAR = target: T2, α4β3δ GABAAR (Homo sapiens, UniProt P28472+P48169); assay: Two-electrode voltage clamp of α4β3δ GABAAR-expressing oocytes; assay type: cell-based; conditions: 200 μM propofol and 50 nM GABA
T2 construct: expressed in transfected cells; host or cells: Xenopus oocytes
From the text: Propofol is known to modulate GABAA receptors that contain a β subunit. […] Data in each group was obtained from 4 oocytes.

[3] = tested on: GABAARs of cerebellar PNs; assay: Whole-cell voltage clamp of cerebellar Purkinje neurons in slices, GABA-evoked currents with UV/blue light; assay type: cell-based, mouse; conditions: 10 μM GABA plus 300 μM propofol
α1β2γ2 GABAARs = target: T3, α1β2γ2 GABAARs (UniProt P18507+P62813+P63138); assay type: binding; conditions: 1 μM competitor added to 10 μM 23 and 3 μM GABA
T3 construct: expressed in transfected cells; host or cells: Xenopus laevis oocytes
From the text: Tomlinson and Rosenthal, the linear chain of 22 is further extended by an amide-linked PEG5000 that is terminated by biotin. […] Bright-field images of the (opaque) oocytes illustrate the focus of the oocyte border during fluorescence microscopy.

## COc1ccc(-c2ccc(=N)n(CCCC(=O)O)n2)cc1 [gabazine, reference compound]
[1]
  average current remaining relative to the pre-gabazine current: 11±3%
[2]; picrotoxin 100 μg, gabazine 30 μg, bicuculline 100 μM (so in the source)
  effect of antagonist on the MPC088-elicited response: not sensitive

## CC(C)c1cccc(C(C)C)c1O [propofol, reference compound]
Hydrophobicity (log P)
  logP: ~4
α4β3δ GABAAR
  response relative to the saturating GABA-alone response: 1.2±0.1 fold
[2]
  maximum current of direct activation relative to the 100 μM GABA response: about 40%
[3]
  light-induced current change: little or no light-induced current change

## CN1C(=O)CN=C(c2ccccc2)c2cc(Cl)ccc21 [diazepam, reference compound]
α1β2γ2 GABAARs
  effect on fluorescent border from binding of 23 (competition): virtually eliminated
[2]
  potentiation factor of the 3 μM GABA response: 1.92±0.36
